Assay results: patent US20140079836A1, “METHODS AND COMPOSITIONS FOR ALTERING HEALTH, WELLBEING, AND LIFESPAN” (LifeSpan Extension, LLC, priority 2008, published 2014)

Tested on: entire human genome (gene expression profile)
Assay: Agilent whole human genome array, skin fibroblasts AG07999, antioxidant with or without UV
Type: cell-based
Procedure: Cell cultures: A human skin fibroblast cell culture was obtained through the Coriell Cell Repository from the National Institute on Aging Cell Repository. […] Culture media: Cells were grown in Minimal Essential Medium supplemented with 10% fetal bovine serum, 2 mM L-glutamine, 2 mM Glutamax I. […] All cultures were incubated at 37° C. with 5% CO2 in a humidified chamber. […] On Day 5 after 24 hours of exposure to test conditions, the cells were isolated and the RNA isolated using the RT^2q PCR-grade RNA isolation kit (Superarray Bioscience Corporation). […] Analysis of Agilent Whole Human Genome Arrays: RNA taken from both samples was sent to Cogenics, Inc. Morrisville, N.C. Cogenics, Inc. is a leading, state-of-the-art, microarray service provider that facilitates and accelerates transcriptome profiling and gene discovery processes for industrial and academic researchers. Cogenics' procedure for processing samples is as follows: RNA samples are received and analyzed by Cogenics, Inc. using rigorous standardized procedures that are designed to ensure quality and chain of custody. Each sample undergoes a thorough quality analysis using an Agilent Bioanalyzer microfluidics device, and is precisely quantified using a Nanodrop-1000 spectro-photometer. When the Agilent Oligonucleotide Microarray Platform is utilized, samples are fluorescently labeled using the Agilent Low-Input Linear Amplification Kit. Upon completion of this process, the labeled cRNA products are assessed using the same processes described above. These labeled samples are then fragmented and hybridized to oligonucleotide microarrays. The microarrays are washed and then scanned using an Agilent DNA Microarray Scanner with Sure Scan technology. Data is extracted from the images produced by the scanner using Agilent's Feature Extraction software. At this point, the scanned image is visually inspected for defects, and the extracted data is statistically analyzed to ensure quality of the assay. Extracted data and images can be loaded into Rosetta Resolver Gene Expression Data Analysis System for in-depth analysis, both from a quality standpoint, as well as to develop biological understanding. […] A table was generated and provided as a tab-delimited text file. This file will contain the log ratio, fold-change, log ratio p-value, etc. for every transcript measured by the microarray. Using Rosetta Resolver, a single ratio comparison was compiled based on the results of the two fluorophore reversal hybridization performed in the context of this project. The ratios were calculated such that the Tx sample was in the numerator and the UnTx sample was in the denominator. A table was generated, saved as tab-delimited text files, and is provided on the DVD that accompanied this report in the “Objective—1” subdirectory or the “Data_Analysis” directory. These files contain the log ratio, fold-change, log ratio p-value, etc. for every transcript present on the microarray. […] A table for will be generated and provided as a tab-delimited text file. The file will contain the log ratio, fold-change, log ratio p-value, etc. for only the differentially expressed transcripts within the context of the comparison. […] These criteria were applied to the comparison made in Objective 1. A table was generated, saved as tab-delimited text files, and is provided on the DVD that accompanied this report in the “Objective—1” subdirectory or the “Data_Analysis” directory. […] Cell cultures: A human skin fibroblast cell culture (or cultures) will be obtained through the Coriell Cell Repository from the National Institute on Aging Cell Repository. […] Culture media: Cells will be grown in Minimal Essential Medium supplemented with 10% fetal bovine serum, 2 mM L-glutamine, 2 mM Glutamax I.

## COC1=C(OC)C(=O)C(CCCCCCCCCCO)=C(C)C1=O [Idebenone, 6-(10-hydroxydecyl)-2,3-dimethoxy-5-methyl-1,4-benzoquin-one]
Alone
  STOML2 Expression: 1.2
  TAGLN Expression: −1.2
  TBXA2R Expression: −1.1
  TEP1 Expression: 1.0
  TERF1 Expression: −1.0
  TERT expression: 1.1
  TFAP2A Expression: −1.2
  TFAP2B Expression: 1.0
  TFAP2C Expression: −1.1
  TFRC Expression: 1.1
  TGFA Expression: 1.0
  TGFB1 Expression: 1.0
  TGFBR2 Expression: −1.3
  TGM1 Expression: −1.1
  TH Expression: 1.6
  THBS1 Expression: −1.1
  TIMP1 Expression: −1.4
  TIMP2 Expression: −1.4
  TK1 Expression: 1.6
  TM4SF1 Expression: −1.1
  TNF Expression: 1.1
  TNFRSF1A Expression: −1.1
  TNFRSF1B Expression: −1.8
  TNFRSF11B Expression: 1.0
  TOP2A Expression: 1.6
  TYMS Expression: 1.2
  UBE2C Expression: 1.5
  UBE2V1 Expression: −1.1
  VEGFC Expression: 1.0
  XRCC6BP1 Expression: 1.1
  YWHAZ Expression: 1.0
Idebenone + UVB
  AKT1 Expression: −1.6
  ALOX12 Expression: 1.8
  APOE Expression: −1.2
  ARG2 Expression: 1.2
  ATOX1 Expression: −1.0
  CAMK1 Expression: −1.7
  CAT Expression: −1.3
  CCNA1 Expression: 1.0
  CCS Expression: −1.2
  CDKN1A Expression: −1.1
  CYBA Expression: −1.2
  CYGB Expression: −1.4
  DDAH2 Expression: 1.0
  DLG4 Expression: −1.0
  DNCL1 Expression: 1.0
  DND1 Expression: −1.0
  DUOX1 Expression: 1.2
  DUOX2 Expression: 2.0
  DUSP1 Expression: 1.2
  EGFR Expression: −1.0
  EPX Expression: −2.2
  FOXM1 Expression: −1.5
  GCH1 Expression: −1.7
  GCHFR Expression: 1.0
  GLA Expression: 1.0
  GLRX2 Expression: 1.0
  GPR156 Expression: 1.3
  GPX1 Expression: −1.1
  GPX2 Expression: −1.2
  GPX3 Expression: −1.2
  GPX4 Expression: −1.1
  GPX5 Expression: 1.4
  GRIN2D Expression: 1.1
  GSS Expression: −1.1
  HSP90AB1 Expression: −1.3
  IL8 Expression: 1.0
  IL10 Expression: 1.1
  INS Expression: 1.1
  JUN Expression: −1.1
  KRT1 Expression: 1.0
  LPO Expression: 1.1
  MBL2 Expression: 1.0
  MPO Expression: 1.0
  MSRA Expression: 1.2
  MT3 Expression: 1.1
  MTL5 Expression: −1.1
  MYB Expression: 1.0
  NCF1 Expression: −1.2
  NCF2 Expression: 1.6
  NME5 Expression: 1.2
  NOS1 Expression: 1.2
  NOS2A Expression: 1.1
  NOS3 Expression: −1.0
  NOSIP Expression: −1.2
  NOSTRIN Expression: 1.0
  NOX5 Expression: −1.2
  NQO1 Expression: −1.2
  NRF1 Expression: −1.4
  NUDT1 Expression: −1.1
  OXR1 Expression: 1.1
  PGC Expression: 1.2
  PKAR1B Expression: −1.0
  PNKP Expression: −1.3
  PP3CA Expression: 1.1
  PRDX2 Expression: 1.0
  PRDX6 Expression: 1.1
  PREX1 Expression: −1.1
  PRG3 Expression: −1.0
  PRKCA Expression: −1.1
  PRNP Expression: 1.0
  RNF7 Expression: −1.0
  SCARA3 Expression: −1.0
  SCRT2 Expression: 1.3
  SELS Expression: 1.0
  SEPP1 Expression: 1.0
  SGK2 Expression: −1.2
  SIRT2 Expression: −1.1
  SOD1 Expression: −1.1
  SOD2 Expression: 1.0
  SOD3 Expression: 1.1
  SRXN1 Expression: −1.1
  TFAM Expression: 1.1
  TPO Expression: 1.0
  TROAP Expression: −1.1
  TTN Expression: 1.3
  TXNRD2 Expression: −1.6
  UNR Expression: 1.4
  VEGFA Expression: −1.3
Idebenone Alone
  AKT1 Expression: 1.0
  ALOX12 Expression: −1.1
  APOE Expression: 1.0
  ARG2 Expression: 1.0
  ATOX1 Expression: −1.0
  CAMK1 Expression: −1.1
  CAT Expression: 1.2
  CCNA1 Expression: 1.0
  CCS Expression: −1.0
  CDKN1A Expression: 1.4
  CYBA Expression: 1.0
  CYGB Expression: 1.2
  DDAH2 Expression: 1.1
  DLG4 Expression: 1.0
  DNCL1 Expression: 1.0
  DND1 Expression: 1.0
  DUOX1 Expression: 1.0
  DUOX2 Expression: −1.1
  DUSP1 Expression: −1.4
  EGFR Expression: 1.8
  EPX Expression: −1.6
  FOXM1 Expression: −1.0
  GCH1 Expression: 1.0
  GCHFR Expression: 1.0
  GLA Expression: −1.2
  GLRX2 Expression: 1.1
  GPR156 Expression: 1.3
  GPX1 Expression: 1.0
  GPX2 Expression: 1.0
  GPX3 Expression: 1.0
  GPX4 Expression: −1.3
  GPX5 Expression: 1.0
  GRIN2D Expression: 1.0
  GSS Expression: −1.1
  HSP90AB1 Expression: 1.0
  IL8 Expression: −1.2
  IL10 Expression: 1.1
  INS Expression: −1.0
  JUN Expression: 1.0
  KRT1 Expression: 1.1
  LPO Expression: 1.1
  MBL2 Expression: 1.0
  MPO Expression: 1.0
  MSRA Expression: 1.0
  MT3 Expression: −1.1
  MTL5 Expression: 1.5
  MYB Expression: 1.0
  NCF1 Expression: −1.7
  NCF2 Expression: 1.1
  NME5 Expression: 1.0
  NOS1 Expression: 1.9
  NOS2A Expression: 1.0
  NOS3 Expression: 1.0
  NOSIP Expression: 1.0
  NOSTRIN Expression: 1.1
  NOX5 Expression: 1.0
  NQO1 Expression: −1.3
  NRF1 Expression: −1.0
  NUDT1 Expression: 1.3
  OXR1 Expression: 1.0
  PGC Expression: −1.2
  PKAR1B Expression: 1.1
  PNKP Expression: 1.0
  PP3CA Expression: 1.0
  PRDX2 Expression: −1.3
  PRDX6 Expression: −1.1
  PREX1 Expression: 1.0
  PRG3 Expression: 1.0
  PRKCA Expression: 1.0
  PRNP Expression: −1.0
  RNF7 Expression: 1.2
  SCARA3 Expression: 1.1
  SCRT2 Expression: 1.4
  SELS Expression: 1.0
  SEPP1 Expression: 1.2
  SGK2 Expression: 1.2
  SIRT2 Expression: −1.0
  SOD1 Expression: −1.0
  SOD2 Expression: −1.2
  SOD3 Expression: −1.3
  SRXN1 Expression: 1.5
  TFAM Expression: −1.2
  TPO Expression: 1.0
  TROAP Expression: −1.0
  TTN Expression: 1.0
  TXNRD2 Expression: −1.3
  UNR Expression: 1.0
  VEGFA Expression: −1.7
Agent + UVB
  POT1 Expression (Human Genome Expression Values): 1.2
  RAP1 Expression (Human Genome Expression Values): −1.1
  TERT Expression (Human Genome Expression Values): −1.3
  TIN2 Expression (Human Genome Expression Values): 1.1
  TNKS2 Expression (Human Genome Expression Values): 1.1
  TNKS Expression (Human Genome Expression Values): 1.3
  TPP1 Expression (Human Genome Expression Values): 1.0
  TRF1 Expression (Human Genome Expression Values): 1.3
  TRF2 Expression (Human Genome Expression Values): −1.1
Agent Alone
  POT1 Expression (Human Genome Expression Values): −1.0
  RAP1 Expression (Human Genome Expression Values): −1.1
  TERT Expression (Human Genome Expression Values): 1.1
  TIN2 Expression (Human Genome Expression Values): 1.1
  TNKS2 Expression (Human Genome Expression Values): −1.0
  TNKS Expression (Human Genome Expression Values): 1.1
  TPP1 Expression (Human Genome Expression Values): −1.1
  TRF1 Expression (Human Genome Expression Values): −1.0
  TRF2 Expression (Human Genome Expression Values): 1.0
